Consider 14 compounds from PMC9749932, “A high-throughput effector screen identifies a novel small molecule scaffold for inhibition of ten-eleven translocation dioxygenase 2” (RSC Medicinal Chemistry, 2022).

Read-outs that look alike come from different tables or passages of the source.

For experiment [1], the target named is T1, human TET2 (Homo sapiens, UniProt Q6N021). To be noted: for inhibition of TET2: additional experiments, data not shown, assay format not stated; for IC50 / inhibition of TET2 activity (in words): MALDI assay; for IC50: resynthesized/synthesized compounds, highest concentration 200 µM; for inhibition of TET2 activity (in words): synthesized compounds.
A further experiment concerns TET1. More on the design: method as in PMID 35586434. The note with it: cited from earlier work.
The subject of the next experiment is TET2. More on the design: method as in PMID 35586434. The note with it: cited from earlier work.
The target of experiment [2] is T1, human TET2. The note with it: FRET assay dose response; three independent experiments with technical duplicates.
Experimental: Use of a DNA duplex terminally labelled with a FRET donor/acceptor dye pair (Cy3/Cy5) thereby enables measuring the amount of caC product generated from an mC duplex by TET (Fig. 1A). […] We identified an universal buffer system (50 mM potassium acetate, 20 mM Tris-acetate, 10 mM magnesium acetate, 100 μg ml^−1 BSA, pH 7.9) that was compatible with the activity of both TET2 and MspI, and thus was applicable to one pot reactions without intermediate purification steps. We incubated 0.5 μM of the DNA duplex with TET2 at different concentrations under aerobic conditions and in the presence of essential assay components, i.e. α-KG, ascorbate, dithiothreitol (DTT), and Fe(II) at 37 °C and pH 8 for 1 hour. We then added 20 U MspI enzyme to determine the caC level generated by TET2-mediated oxidation.
For screening, we premixed the annealed oligonucleotides with TET2 and all other essential components except Fe(II) in 1536-well plates, followed by the acoustic transfer of test compounds into each well at a final concentration of 50 μM. […] In order to distinguish the false-positive hits, we normalized the final Cy5 fluorescence of each well to its respective initial value immediately after MspI addition. […]
fluorescence signals were recorded on an Infinite® M1000 (Tecan). […]

As for `O=C(O)c1ccnc(Br)c1` [2-bromoisonicotinic acid, reference compound], the “inhibition of TET2” value against human TET2 [1] is “no inhibition”.
With `Nc1nc(=O)n(-c2cccc(-c3ccccc3)c2)cc1Cl` [Bobcat339], in the experiment on TET1, the “inhibition of TET1” value is “not be an inhibitor”. Moreover, the “inhibition of TET2” value with TET2 is reported as “not be an inhibitor”.
On to `CC(=O)N(O)CCCCCNC(=O)CCC(=O)N(O)CCCCCNC(=O)CCC(=O)N(O)CCCCCN` [DFOA, deferoxamine], for which the IC50 (in general, the concentration needed to halve the response being measured) on human TET2 [2] stood at 46 µM.
Take `CC(C)OS(=O)(=O)c1ccc(F)c2ncc(I)cc12` [compound 5]: the IC50 against human TET2 [1] was > 200 µM.
On the same count and under the same terms, the result for `CCCCCOS(=O)(=O)c1ccc(F)c2ncc(I)cc12` [compound 6] reads > 200 µM; that for `NS(=O)(=O)c1ccc(F)c2ncc(I)cc12` [compound 8], 86.6 ± 5.6 µM.
Regarding `CNS(=O)(=O)c1ccc(F)c2ncc(I)cc12` [compound 9], on human TET2 [1], the “inhibition of TET2 activity (in words)” value is “inactive” and the IC50 is > 200 µM.
The corresponding values for `O=S(=O)(c1ccc(F)c2ncc(I)cc12)N1CCCC1` [compound 10] are “inactive” and > 200 µM.
With `O=S(=O)(Nc1ccccc1)c1ccc(F)c2ncc(I)cc12` [compound 11], the IC50 against human TET2 [1] was 23.9 ± 4.1 µM.
As for `O=S(=O)(NCc1ccccc1)c1ccc(F)c2ncc(I)cc12` [compound 13], the IC50 at human TET2 [1] is > 200 µM.
Same read-out and setting: for `O=S(=O)(NCCc1ccccc1)c1ccc(F)c2ncc(I)cc12` [compound 14] the value was > 200 µM; for `O=S(=O)(Nc1cccc(O)c1)c1ccc(F)c2ncc(I)cc12` [compound 16], > 200 µM.
Regarding `Nc1ccccc1S(=O)(=O)O` [o-anilinesulfonic acid, reference compound], the “inhibition of TET2” value against human TET2 [1] is reported as “no inhibition”.
Still for that read-out and setting: the result for `Cc1ccc(S(=O)(=O)O)cc1` [p-toluenesulfonic acid, reference compound] reads “no inhibition”.
